Measurements taken from patent US9079853B2, “Isatin compounds, compositions and methods for treatment of degenerative diseases and disorders” (MUSC FOUNDATION FOR RESEARCH DEVELOPMENT, priority 2013, dated 2015).

Legend:
[1] = system: 661W or C6 cells; experiment: MTT assay, protection against calcium-ionophore A23187; format: cell-based; conditions: 1 μM A23187, 24 h
Procedure: The compound 3-(4,5-Dimethylthiazol-2-yl)-2,5-diphenyltetrazolium bromide (MTT) is a tetrazolium ion that is reduced to a blue formazan dye via several families of NAD(P)H-dependent oxidoreductases. Formation of the formazan dye from MTT or other related tetrazolium dyes are commonly used as a viability assay even though, in fact, the assay is a metabolic capacity assay.
In this assay, 661W or C6 cells were maintained in DMEM supplemented with 10% FBS. 100 μL of 70,000 cells/mL cells were seeded into each well of 96 well plates using DMEM supplemented with 5% FBS. Cells were then allowed to grow to confluency for 48 hours. The compounds of the invention were added in 2 μL media and calcium-ionophore A23187 was then added in 1 μL for a final concentration of 1 μM and after 24 h, 20 μL of […] MTT were added to each well and the cells were incubated for another 4 h after which 100 μL of 1% SDS in 0.01M aqueous HCl were added to each well and the plates were incubated overnight. Absorbance was measured at […] (background correction). The 1 μM ionophore A23187 caused about 50% loss in MTT signal at 24 h. Protection was calculated as the increase in absorbance of treatment groups normalized to the vehicle control.

[2] = system: 661W or C6 cells; experiment: XF FCCP-uncoupled oxygen consumption rate assay (IBMX challenge); format: cell-based; conditions: 1 h pretreatment, 600 μM IBMX, 24 h, read-out: XF FCCP OCR (% Ctrl); for activity at 0.001 µM: compound 1 nM;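 as to all read-outs here: values normalized to the vehicle control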
Procedure: The XF FCCP-uncoupled oxygen consumption rate assay assesses mitochondrial capacity by measuring cellular respiration. It was shown that the maximum FCCP-uncoupled oxygen consumption rate (OCR) was a good estimate of maximal mitochondrial capacity (Beeson 2010) and that IBMX treatment of 661W or C6 cells for 24 h caused a loss in maximal uncoupled OCR (Perron 2013). Thus, cells were pretreated with the exemplified compounds for 1 h, added 600 μM IBMX and then measured the uncoupled rate after 24 h. In brief, the OCR measurements were performed using a Seahorse Bioscience XF instrument (Seahorse Bioscience, Billerica, Md.), as previously published (Perron 2013). O2 leakage through the plastic sides and bottom of the plate was accounted for using the AKOS algorithm in the XF software package. Cells were plated on 96- or 24-well custom plates designed for use in the XF and grown to confluency in DMEM+5% FBS (48 h). The medium was then replaced with DMEM+1% FBS for 24 h, along with any treatments.

[3] = system: rd1 mouse retina organ cultures; experiment: Retinal degeneration assay, rd1 mouse retinal explants; format: cell-based; conditions: rows of photoreceptors in ONL, explants cultured 11 days
Procedure: It was reasoned that the compounds' activities would enable them to protect against loss of photoreceptors in retinal degenerative animal models. As a translational bridge between the cell line-based assays and in vivo animal studies, mouse retina organ cultures were utilized. These retinal explants were a powerful ex vivo screening tool, which allowed the testing of photoreceptor cell survival within the retinal network, and the effects of a specific compound were tested like in an in vitro system, without systemic interference. In this assay, the rd1 mouse was utilized. The genotype of the rd1 mouse has a mutation in the β-subunit of the phosphodiesterase gene. […] The genetic deficit and the retinal pathology were very similar to that observed in the patients with βPDE-dependent RP. In these mice, rod photoreceptor degeneration started after postnatal day 10 (P10), progressing rapidly, such that at P21, only 1-2 rows of photoreceptor remained, mainly representing cones. Finally, the rd1 mouse retina was amenable to culturing, replicating both retinal development and degeneration, following the same time course as in vivo. The retinal explants were cultured for 11 days ex vivo. […] At the end of the experiments, tissues were fixed, sectioned and stained with 0.1% toluidine and the numbers of rows of photoreceptors remaining in the outer nuclear layer (ONL) were counted.

[4] = system: Balb/c mice; experiment: Light model assay (constant light damage, eyedrops); format: in vivo, mouse; conditions: continuous light 7 days, rows of photoreceptors
From the text: The light model assay is generally accepted as a model of age related macular degeneration (AMD). […] In particular, oxidative damage has been detected by immunohistochemistry, detecting the presence of oxidized and tyrosine-phosphorylated proteins as well as the upregulation of endogenous antioxidants such as thioredoxin and glutathione peroxidase. […] Additional indirect evidence for the involvement of oxidative stress in photoreceptor degeneration has been provided by treatment of photodamaged retinas with antioxidants such as dimethylthiourea, or the treatment of N-methyl-N-nitrosourea (MNU)-challenged rats with the antioxidant DHA.
The light model assay was used to further test the therapeutic potential of the compounds of the invention. Photoreceptors from albino animals are very sensitive to constant light, lacking the RPE pigment to protect them. Thus, Balb/c mice were exposed to continuous light for 7 days, which caused loss of about 50% of the photoreceptor cells as measured via histology. To test the potential therapeutic efficacy, eyedrops were formulated in 0.1% Bij 35 in […], applied once or twice daily throughout the period of light exposure, and their effect assessed on the light-induced degeneration of photoreceptor cells morphologically and electrophysiologically, 10 days after the onset of the CL exposure.

[5] = system: retinal explants from Ser344ter-3 rats; experiment: S334ter assay, retinal explants; format: cell-based, rat; conditions: P12-P17 retinal explants
Procedure: To further evaluate neuroprotection, certain compounds of the invention were evaluated with the Ser344ter-3 rats in which a truncation in the rhodopsin […] eliminated a phosphorylation site. It has been shown that the Ser344ter-3 rhodopsin was extensively misfolded causing induction of ER stress genes BiP and CHOP (Kroeger 2012). […] Statistically significant protection against loss of photoreceptor cell nuclei was observed (Table 5 below).

## CCCCN1C(=O)C(O)(CC(=O)c2ccccn2)c2ccccc21 (stereo not drawn) [Example 12, 1-butyl-3-hydroxy-3-(2-oxo-2-(pyridin-2-yl)ethyl)indolin-2-one]
[1]; compound 10 μM
  MTT, % protection: 67%,
[2]; compound 10uM
  activity at 10 µM: 73%
[3]; 5 μM
  rd1 protection (# of rows): 5 μM, 3.19 # of rows
[4]; 1 mM eyedrops once per day
  LD Protection (# of rows): 5.33 # of rows
[5]; 1 μM
  s334ter protection (# of rows): 1 μM 3.86 # of rows

## CCN1C(=O)C(O)(Cc2cc(OC)c(OC)c(OC)c2)c2cc(C)ccc21 (stereo not drawn) [Example 34, 1-ethyl-3-hydroxy-5-methyl-3-(3,4,5-trimethoxybenzyl)indolin-2-one]
[1]; compound 1 nM
  MTT, % protection: 82.4%,
[2]
  activity at 0.001 µM: 94%
[4]; 10 μM eyedrops once per day
  LD Protection (# of rows): 5.47 # of rows

## CCN1C(=O)C(Cc2cccc(OC)c2O)(OC(=O)c2ccccc2)c2cc(Cl)ccc21 (stereo not drawn) [Example 59, 5-chloro-1-ethyl-3-(2-hydroxy-3-methoxybenzyl)-2-oxoindolin-3-yl benzoate]
[1]; compound 1 μM
  MTT, % protection: 117.4%,
[2]
  activity at 0.001 µM: 92%
[4]; 100 μM eyedrops once per day
  LD Protection (# of rows): 5.98 # of rows

## COc1cccc(C(=O)CC2(O)C(=O)N(CCCN=[N+]=[N-])c3ccc(C)cc32)n1 (stereo not drawn) [Example 28, 1-(3-azidopropyl)-3-hydroxy-3-(2-(6-methoxypyridin-2-yl)-2-oxoethyl)-5-methylindolin-2-one]
[1]; compound 1 μM
  MTT, % protection: 65.9%,
[4]; 1 mM eyedrops once per day
  LD Protection (# of rows): 5.55 # of rows

## CCCN1C(=O)C(O)(CC(=O)c2c[nH]c3ccccc23)c2cc(Cl)ccc21 (stereo not drawn) [Example 31, 3-(2-(1H-indol-3-yl)-2-oxoethyl)-5-chloro-3-hydroxy-1-propylindolin-2-one]
[1]; compound 1 nM
  MTT, % protection: 64.2%,
[2]
  activity at 0.001 µM: 74%
[3]; 10 nM
  rd1 protection (# of rows): 10 nM, 2.53 # of rows
[4]; 1 mM eyedrops once per day
  LD Protection (# of rows): 5.94 # of rows

## COc1ccc(O)c(CC2(OC(=O)c3ccccc3)C(=O)N(CCCC(C)C)c3ccc(C)cc32)c1 (stereo not drawn) [Example 58, 3-(2-hydroxy-5-methoxybenzyl)-5-methyl-1-(4-methylpentyl)-2-oxoindolin-3-yl benzoate]
[1]; compound 100 nM
  MTT, % protection: 100%,
[2]
  activity at 0.001 µM: 97%
[4]; 100 μM eyedrops once per day
  LD Protection (# of rows): 6.06 # of rows
[5]; 50 nM
  s334ter protection (# of rows): 50 nM, 2.73 # of rows
